Data taken from patent US20120196854A1, “PHARMACEUTICAL COMPOSITION COMPRISING AROMATIC HETEROCYCLIC COMPOUND” (Kyowa Hakko Kirin Co., Ltd., priority 2009, published 2012).

Key:
human H-PGDS = target: T1, human H-PGDS (Homo sapiens, UniProt O60760); test: H-PGDS inhibitory activity (Prostaglandin D Synthase Inhibitor Screening Assay Kit); assay type: biochemical; settings: at a concentration of 1 μmol/L; read-out: H-PGDS inhibitory rate
T1 construct: purchased Cayman Chemical 10006593
Protocol: The H-PGDS inhibitory activity of Compound (I) was calculated according to the following protocol attached to Prostaglandin D Synthase Inhibitor Screening Assay Kit (Cat. No. 10006595, Cayman Chemical, Ann Arbor, Mich., USA).
(§1) First, to a 96-well round-bottom plate (Cat. No. 3882-096, Asahi Techno Glass, Chiba), 60 μL/well of an enzyme assay buffer (0.1 mol/L Tris-HCl, pH 8.0), 10 μL/well of a human H-PGDS [Cat. No. 10006593 (human), Cayman Chemical, Ann Arbor, Mich., USA] at a final concentration of 0.125 μg/mL, 10 μL/well of reduced glutathione at a final concentration of 1 mmol/L, and 10 μL/well of Compound (I) diluted with the enzyme assay buffer were added and lightly mixed. The plate was allowed to stand at room temperature for 10 minutes, and then 10 μL/well of prostaglandin H2(PGH2) (Cat. No. 17020, Cayman Chemical) at a final concentration of 50 μmol/L was added thereto to start enzyme reaction. The reaction was allowed to proceed with mixing by a plate mixer for 1 minute. After the enzyme reaction, 10 μL/well of a 4 mg/mL FeCl2-HCl solution prepared by dissolving FeCl2 in 1 mol/L hydrochloric acid was added to stop the reaction and reduce PGH2 simultaneously. The enzyme reaction solution (100 μL/well) was transferred to a 96-well UV-Star half area plate (Cat. No. 675801, Greiner, Frickenhausen, Germany), and measured for absorbance at 232 nm using a microplate reader Power Wave (BioTek Instrument Inc., Winooski, Vt., USA).
The H-PGDS inhibitory activity (inhibitory rate) of Compound (I) was calculated by the following formula.
The H-PGDS inhibitory activity of Compound 133 was calculated according to the following protocol attached to Prostaglandin D Synthase Inhibitor Screening Assay Kit (Cat. No. 10006595, Cayman Chemical, Ann Arbor, Mich., USA).
as §1, with “133” for “(I)”
The H-PGDS inhibitory activity (inhibitory rate) of Compound 133 was calculated according to the method in Test Example 1.

[1] = test system: PGD2 production in mouse ear; test: Inhibitory effect on PGD2 production in mouse ear caused by allergic reaction; assay type: in vivo; settings: 3 mg/kg orally, 1 hour before inducing antigen-antibody reaction; BALB/c mice
Protocol: A test of PGD2 production in the mouse ear caused by allergic reaction was conducted according to the evaluation method of passive cutaneous anaphylaxis in the mouse ear by Inagaki et al. (Int.Arch.AllergyAppl. Immunol., 1988, 86 (3), 325-30) with some alteration. […]
One hour after the induction of antigen-antibody reaction, the mice were killed by cervical dislocation and the ears were cut off with scissors. […] The harvested pieces of ear tissue were immediately frozen in liquid nitrogen, and preserved at −80° C. until measurement of the quantity of PGD2.
The quantity of PGD2 was determined in the following manner. […]

T1 sequence (O60760 whole entry): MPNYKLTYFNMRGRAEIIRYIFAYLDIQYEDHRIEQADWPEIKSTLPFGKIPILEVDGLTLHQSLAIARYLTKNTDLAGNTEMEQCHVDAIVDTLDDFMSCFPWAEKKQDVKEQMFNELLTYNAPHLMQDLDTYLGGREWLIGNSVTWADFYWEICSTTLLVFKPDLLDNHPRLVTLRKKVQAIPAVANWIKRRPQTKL

| Compound | inhibition at 1 µM (human H-PGDS) [%] | inhibition of PGD2 production in mouse ear caused by allergic reaction [1] [%] |
| --- | --- | --- |
| CS(=O)(=O)Nc1ccc(-c2cc(C(=O)O)c3c(ccc4nn(-c5ccccc5)nc43)n2)cc1 [Compound 6, 7-(4-methanesulfonylaminophenyl)-2-phenyl-2H[1,2,3]triazolo[4,5-f]quinoline-9-carboxylic acid] | ≥ 80 |  |
| CS(=O)(=O)NC(=O)c1ccc(-c2cc(C(=O)O)c3c(ccc4nn(-c5ccccc5)nc43)n2)cc1 [Compound 13, 7-(4-methanesulfonylaminocarbonylphenyl)-2-phenyl-2H[1,2,3]triazolo[4,5-f]quinoline-9-carboxylic acid] | ≥ 80 |  |
| O=C(O)c1cc(-c2ccc(NS(=O)(=O)c3ccccc3)cc2)nc2ccc3nn(-c4ccccc4)nc3c12 [Compound 15, 7-(4-benzenesulfonylaminophenyl)-2-phenyl-2H[1,2,3]triazolo[4,5-f]quinoline-9-carboxylic acid] | ≥ 80 |  |
| CS(=O)(=O)NC(=O)c1cccc(-c2cc(C(=O)O)c3c(ccc4nn(-c5ccccc5)nc43)n2)c1 [Compound 17, 7-(3-methanesulfonylaminocarbonylphenyl)-2-phenyl-2H[1,2,3]triazolo[4,5-f]quinoline-9-carboxylic acid] | ≥ 80 |  |
| O=C(NS(=O)(=O)c1ccccc1)c1cccc(-c2cc(C(=O)O)c3c(ccc4nn(-c5ccccc5)nc43)n2)c1 [Compound 26, 7-(3-benzenesulfonylaminocarbonylphenyl)-2-phenyl-2H[1,2,3]triazolo[4,5-f]quinoline-9-carboxylic acid] | ≥ 80 |  |
| O=C(NS(=O)(=O)c1ccccc1)c1ccc(-c2cc(C(=O)O)c3c(ccc4nn(-c5ccccc5)nc43)n2)cc1 [Compound 28, 7-(4-benzenesulfonylaminocarbonylphenyl)-2-phenyl-2H[1,2,3]triazolo[4,5-f]quinoline-9-carboxylic acid] | ≥ 80 |  |
| O=C(O)c1cc(-c2ccc(NS(=O)(=O)c3ccccc3)cc2)nc2ccc3nc(-c4ccccc4)oc3c12 [Compound 53, 7-(4-benzenesulfonylaminophenyl)-2-phenyloxazolo[5,4-f]-quinoline-9-carboxylic acid] | ≥ 80 |  |
| O=C(O)c1cc(-c2cc(C(=O)O)c3c(ccc4nn(-c5cccc(F)c5)nc43)n2)c[nH]1 [Compound 76, 7-(5-carboxy-1H-pyrrol-3-yl)-2-(3-fluorophenyl)-2H-[1,2,3]-triazolo[4,5-f]quinoline-9-carboxylic acid] | ≥ 80 |  |
| Cc1cccc(-n2nc3ccc4nc(-c5ccco5)cc(C(=O)O)c4c3n2)c1 [Compound 102, 7-(furan-2-yl)-2-(3-methylphenyl)-2H-[1,2,3]triazolo[4,5-f]quinoline-9-carboxylic acid] | ≥ 80 | 84 |
| O=C(O)c1cc(-c2cnn(Cc3ccccc3)c2)nc2ccc3nn(-c4cccc(F)c4)nc3c12 [Compound 116, 7-(1-benzyl-1H-pyrazol-4-yl)-2-(3-fluorophenyl)-2H-[1,2,3]-triazolo[4,5-f]quinoline-9-carboxylic acid] | ≥ 80 |  |
